The source of these data is ChEMBL document CHEMBL1201862, “PubChem BioAssay data set” (2004).

Active and inactive are the calls of the source.

In assay [1] the target is Lysosomal acid glucosylceramidase (Homo sapiens, UniProt P04062). Put plainly: Dose response cell-based high throughput screening assay to identify enhancers of beta-glucosidase activity. [Related pubchem assays: 784 ]. It is filed as functional.
Assay [2] in a line: Luminescence Cell-Based Dose Response HTS to Identify Inhibitors of 5'UTR Stem-Loop Driven Prion Protein mRNA Translation in H4 Neuroglioblastoma Cells. [Related pubchem assays: 1827 (Project Summary), 1813 (Primary HTS)]. It is filed as functional.
Assay [3] is described as follows: viability of uninfected HEp-2 cells – cell-based, HTS, cytotoxicity control for RSV inhibitor project, dose response (AID 2410). Type of assay: functional. The following applies: human respiratory syncytial virus.
The nature of assay [4]: alpha-synuclein stem-loop luciferase translation blockers – H4 neuroglioma cells, luminescence, confirmation (AID 1988). Type of assay: functional, cell-based.
In assay [5] the target is Beta-2 adrenergic receptor (Homo sapiens, UniProt P07550). Nature of the assay: ADRB2 activation measured by internalization – cell-based, FAP fluorogen, flow cytometry, cherry pick 1, dose response (AID 588763). Type of assay: functional. (In general: Flow cytometry measures light scatter and fluorescence of single cells or particles in a stream.)
Chain of Beta-2 adrenergic receptor (P07550 whole entry): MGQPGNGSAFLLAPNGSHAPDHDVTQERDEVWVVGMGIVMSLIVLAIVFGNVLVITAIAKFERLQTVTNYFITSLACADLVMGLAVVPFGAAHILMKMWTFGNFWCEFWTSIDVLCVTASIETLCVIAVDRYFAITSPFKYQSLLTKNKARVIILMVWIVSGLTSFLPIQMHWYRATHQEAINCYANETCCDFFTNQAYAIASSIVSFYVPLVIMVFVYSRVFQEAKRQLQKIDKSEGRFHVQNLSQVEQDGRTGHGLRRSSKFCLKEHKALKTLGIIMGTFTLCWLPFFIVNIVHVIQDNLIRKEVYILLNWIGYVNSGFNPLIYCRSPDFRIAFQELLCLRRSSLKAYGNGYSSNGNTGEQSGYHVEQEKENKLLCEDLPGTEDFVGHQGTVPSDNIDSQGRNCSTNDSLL
Assay [6] has as its target Oxytocin receptor (Homo sapiens, UniProt P30559). Put plainly: Fluorescence-based cell-based high throughput dose response assay for agonists of the Oxytocin Receptor (OXTR). [Related pubchem assays: 2435 (Primary screen (OXTR agonists in singlicate)), 434991 (Counterscreen (V1R agonists in triplicate)), 2482 (Summary (OXTR agonists)), 434963 (Confirmation screen (OXTR agonists in triplicate))]. Type of assay: functional. (A counterscreen serves to expose hits that act by an unwanted route or on another target.)

Assay [7] in a line: luciferase reporter signal suppression in cells – H4 neuroglioma cells, luminescence, dose response (AID 1990). It is filed as functional, cell-based. Background: A reporter such as luciferase makes a cellular process visible.
Assay [8] concerns the target Vasopressin V1a receptor (Homo sapiens, UniProt P37288). Put plainly: Counterscreen for Oxytocin Receptor (OXTR) agonists: Fluorescence-based cell-based high throughput dose response assay to identify agonists of the vasopressin 1 receptor (V1R). [Related pubchem assays: 2435 (Primary screen (OXTR agonists in singlicate)), 434991 (Counterscreen (V1R agonists in triplicate)), 2482 (Summary (OXTR agonists)) …. It is filed as functional.

The target in assay [9] is T1, Alkaline phosphatase, tissue-nonspecific isozyme (Homo sapiens, UniProt P05186).
T1 sequence (P05186 whole entry): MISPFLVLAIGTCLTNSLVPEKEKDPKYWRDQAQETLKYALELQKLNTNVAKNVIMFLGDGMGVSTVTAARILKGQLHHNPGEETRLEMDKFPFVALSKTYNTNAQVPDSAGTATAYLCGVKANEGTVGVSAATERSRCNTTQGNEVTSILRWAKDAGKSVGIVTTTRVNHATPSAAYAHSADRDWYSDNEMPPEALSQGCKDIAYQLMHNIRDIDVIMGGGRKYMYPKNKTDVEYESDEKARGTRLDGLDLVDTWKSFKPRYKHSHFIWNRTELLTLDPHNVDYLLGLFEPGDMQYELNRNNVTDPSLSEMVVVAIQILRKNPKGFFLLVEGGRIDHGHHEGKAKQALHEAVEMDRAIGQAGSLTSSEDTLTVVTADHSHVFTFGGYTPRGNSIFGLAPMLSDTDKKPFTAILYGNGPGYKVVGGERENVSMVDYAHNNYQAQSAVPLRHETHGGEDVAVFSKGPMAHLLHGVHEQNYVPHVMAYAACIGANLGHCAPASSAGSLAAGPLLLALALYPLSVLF

For assay [10], the target named is Heat shock cognate 71 kDa protein (Homo sapiens, UniProt P11142). Put plainly: In Vitro Hsc70 Dose Response Fluorescence Polarization Assay. [Related pubchem assays: 1072 ].
Chain of Heat shock cognate 71 kDa protein (P11142 whole entry): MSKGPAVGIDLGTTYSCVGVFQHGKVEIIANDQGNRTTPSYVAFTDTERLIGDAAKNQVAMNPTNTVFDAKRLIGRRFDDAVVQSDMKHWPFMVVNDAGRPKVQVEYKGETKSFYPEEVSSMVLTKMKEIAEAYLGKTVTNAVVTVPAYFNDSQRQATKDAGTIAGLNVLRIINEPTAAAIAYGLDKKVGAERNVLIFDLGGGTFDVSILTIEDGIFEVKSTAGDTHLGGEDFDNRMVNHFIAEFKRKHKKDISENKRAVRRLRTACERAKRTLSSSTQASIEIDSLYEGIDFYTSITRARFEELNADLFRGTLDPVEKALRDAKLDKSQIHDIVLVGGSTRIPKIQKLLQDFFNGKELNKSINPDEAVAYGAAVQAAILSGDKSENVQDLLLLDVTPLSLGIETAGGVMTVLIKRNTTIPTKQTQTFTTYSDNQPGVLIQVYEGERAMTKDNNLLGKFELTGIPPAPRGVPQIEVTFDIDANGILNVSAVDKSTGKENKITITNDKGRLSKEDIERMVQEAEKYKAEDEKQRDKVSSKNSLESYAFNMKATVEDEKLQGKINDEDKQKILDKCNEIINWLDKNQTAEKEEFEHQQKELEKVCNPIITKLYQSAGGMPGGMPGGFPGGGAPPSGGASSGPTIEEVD
For assay [11], the target named is Glyceraldehyde-3-phosphate dehydrogenase (Homo sapiens, UniProt P04406).
Chain of Glyceraldehyde-3-phosphate dehydrogenase (P04406 whole entry): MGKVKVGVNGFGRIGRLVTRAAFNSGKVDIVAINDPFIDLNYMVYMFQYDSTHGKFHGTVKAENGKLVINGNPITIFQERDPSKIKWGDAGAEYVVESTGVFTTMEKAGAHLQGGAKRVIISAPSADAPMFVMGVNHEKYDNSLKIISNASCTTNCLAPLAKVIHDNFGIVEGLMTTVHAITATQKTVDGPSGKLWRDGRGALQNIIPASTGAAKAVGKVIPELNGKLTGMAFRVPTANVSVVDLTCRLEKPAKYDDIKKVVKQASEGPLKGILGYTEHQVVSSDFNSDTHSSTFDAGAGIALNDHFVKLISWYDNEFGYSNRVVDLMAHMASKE
Assay [12] concerns the target T2, Tyrosine-protein phosphatase non-receptor type 7 (Homo sapiens, UniProt P35236).
T2 sequence (P35236 whole entry): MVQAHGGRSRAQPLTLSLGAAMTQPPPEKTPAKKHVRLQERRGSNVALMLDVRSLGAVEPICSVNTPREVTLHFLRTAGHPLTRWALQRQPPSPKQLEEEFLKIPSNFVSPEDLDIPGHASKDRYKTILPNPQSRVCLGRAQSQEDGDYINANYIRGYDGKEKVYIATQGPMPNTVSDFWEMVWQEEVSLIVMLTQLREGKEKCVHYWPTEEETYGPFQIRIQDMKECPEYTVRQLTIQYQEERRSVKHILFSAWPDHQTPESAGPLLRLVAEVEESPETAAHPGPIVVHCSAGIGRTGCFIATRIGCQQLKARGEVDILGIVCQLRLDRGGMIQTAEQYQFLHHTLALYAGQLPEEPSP
It is filed as functional.

The target in assay [13] is T3, Dual specificity protein phosphatase 6 (Rattus norvegicus, UniProt Q64346).
T3 sequence (Q64346 whole entry): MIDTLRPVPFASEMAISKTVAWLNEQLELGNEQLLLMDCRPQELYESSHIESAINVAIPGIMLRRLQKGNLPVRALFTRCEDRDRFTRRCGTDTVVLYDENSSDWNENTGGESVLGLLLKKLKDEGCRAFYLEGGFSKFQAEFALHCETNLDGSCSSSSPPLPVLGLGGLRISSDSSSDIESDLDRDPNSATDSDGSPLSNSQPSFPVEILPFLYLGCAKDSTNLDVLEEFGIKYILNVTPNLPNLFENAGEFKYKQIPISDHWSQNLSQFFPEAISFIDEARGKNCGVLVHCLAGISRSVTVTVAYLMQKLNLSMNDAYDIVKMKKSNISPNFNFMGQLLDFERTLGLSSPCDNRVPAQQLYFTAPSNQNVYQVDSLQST

Assay [14] concerns the target T3, Dual specificity protein phosphatase 6. It is filed as functional.
Assay [15] addresses Heat shock 70 kDa protein 1A (Homo sapiens, UniProt P0DMV8). Put plainly: inhibition of Hsp70 binding activity – biochemical, fluorescence polarization, SAR follow-up (AID 1072).
For assay [16], the target named is Bcl-2-like protein 10 (Homo sapiens, UniProt Q9HD36). Nature of the assay: Concentration-response of Bcl-B inhibitors by biochemical FP with TR3 (AID 1243). Type of assay: functional.
Chain of Bcl-2-like protein 10 (Q9HD36 whole entry): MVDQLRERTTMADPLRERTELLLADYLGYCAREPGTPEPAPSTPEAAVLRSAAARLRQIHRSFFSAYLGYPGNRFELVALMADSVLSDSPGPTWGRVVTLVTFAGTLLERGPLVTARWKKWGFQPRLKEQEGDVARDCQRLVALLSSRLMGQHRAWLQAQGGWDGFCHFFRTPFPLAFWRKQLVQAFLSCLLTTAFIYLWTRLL

Chain of Oxytocin receptor (P30559 whole entry): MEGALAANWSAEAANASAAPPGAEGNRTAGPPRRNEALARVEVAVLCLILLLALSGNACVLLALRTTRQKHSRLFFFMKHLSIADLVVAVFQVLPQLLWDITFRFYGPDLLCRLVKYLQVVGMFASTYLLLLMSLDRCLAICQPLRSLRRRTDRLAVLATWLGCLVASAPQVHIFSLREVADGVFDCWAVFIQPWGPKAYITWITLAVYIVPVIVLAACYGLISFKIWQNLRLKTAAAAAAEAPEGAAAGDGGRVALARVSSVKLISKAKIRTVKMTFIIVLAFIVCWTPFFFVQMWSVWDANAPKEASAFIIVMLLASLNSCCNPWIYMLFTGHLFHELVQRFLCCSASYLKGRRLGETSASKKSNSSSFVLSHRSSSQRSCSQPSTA
Chain of Vasopressin V1a receptor (P37288 whole entry): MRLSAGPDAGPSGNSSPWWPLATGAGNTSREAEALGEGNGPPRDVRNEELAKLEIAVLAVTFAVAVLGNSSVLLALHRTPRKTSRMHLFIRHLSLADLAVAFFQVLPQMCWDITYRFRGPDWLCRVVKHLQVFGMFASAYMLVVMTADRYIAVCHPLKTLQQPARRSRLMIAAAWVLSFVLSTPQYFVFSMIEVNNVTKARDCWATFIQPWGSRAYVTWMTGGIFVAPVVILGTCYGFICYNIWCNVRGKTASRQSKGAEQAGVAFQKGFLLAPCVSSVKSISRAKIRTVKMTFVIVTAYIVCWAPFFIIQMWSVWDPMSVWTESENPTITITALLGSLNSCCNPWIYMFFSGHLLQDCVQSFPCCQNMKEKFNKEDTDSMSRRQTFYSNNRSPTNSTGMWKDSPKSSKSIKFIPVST
Chain of Heat shock 70 kDa protein 1A (P0DMV8 whole entry): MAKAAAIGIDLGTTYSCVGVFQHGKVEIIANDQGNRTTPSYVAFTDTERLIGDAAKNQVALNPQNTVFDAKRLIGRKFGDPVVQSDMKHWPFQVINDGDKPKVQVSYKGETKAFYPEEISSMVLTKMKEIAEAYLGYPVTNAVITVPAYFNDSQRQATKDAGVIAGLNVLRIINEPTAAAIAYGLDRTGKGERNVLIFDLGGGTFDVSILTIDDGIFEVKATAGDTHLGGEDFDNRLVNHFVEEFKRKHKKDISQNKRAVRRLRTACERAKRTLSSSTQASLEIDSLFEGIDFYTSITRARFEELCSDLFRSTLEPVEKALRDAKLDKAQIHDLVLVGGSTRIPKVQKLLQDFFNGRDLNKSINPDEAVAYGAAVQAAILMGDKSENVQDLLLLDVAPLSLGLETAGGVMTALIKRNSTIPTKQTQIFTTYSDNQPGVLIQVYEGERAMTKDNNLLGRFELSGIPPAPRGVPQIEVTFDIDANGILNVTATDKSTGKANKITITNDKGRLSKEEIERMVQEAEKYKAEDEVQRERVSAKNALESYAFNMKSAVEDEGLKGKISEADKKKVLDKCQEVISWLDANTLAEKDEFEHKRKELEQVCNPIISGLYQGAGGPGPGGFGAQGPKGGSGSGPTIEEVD
Chain of Lysosomal acid glucosylceramidase (P04062 whole entry): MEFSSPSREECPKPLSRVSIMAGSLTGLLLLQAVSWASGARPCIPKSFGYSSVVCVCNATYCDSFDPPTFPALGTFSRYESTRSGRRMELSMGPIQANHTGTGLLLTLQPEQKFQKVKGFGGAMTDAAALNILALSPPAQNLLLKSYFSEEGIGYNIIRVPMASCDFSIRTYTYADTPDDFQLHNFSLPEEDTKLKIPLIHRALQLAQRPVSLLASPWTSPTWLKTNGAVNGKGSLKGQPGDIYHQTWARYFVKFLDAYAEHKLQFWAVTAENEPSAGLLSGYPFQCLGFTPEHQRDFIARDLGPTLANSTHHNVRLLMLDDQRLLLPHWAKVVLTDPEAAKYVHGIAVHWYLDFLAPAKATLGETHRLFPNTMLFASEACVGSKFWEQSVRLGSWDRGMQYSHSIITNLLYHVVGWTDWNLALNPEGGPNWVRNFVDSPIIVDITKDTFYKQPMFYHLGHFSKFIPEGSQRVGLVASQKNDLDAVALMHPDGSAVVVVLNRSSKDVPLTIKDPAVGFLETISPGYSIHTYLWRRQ

On to `CC(C)(C)NC(=O)CSc1nncn1NCc1ccccc1`, for which the concentration for a half-maximal effect (EC50) in assay [1] is recorded as > 50 µM (not active).

On to `COc1ccc(CCNCC(O)Cn2c3ccccc3c3ccccc32)cc1OC` (stereo unspecified), for which the concentration for a half-maximal effect (EC50) in assay [2] is > 120 µM (not active); in assay [4], > 120 µM (not active); in [5], 12.5 µM (inactive); in assay [6], 18.8 µM (not active); in [7] it was 8.76 µM (active); in assay [8], 12.7 µM (not active). Also, in assay [3], the 50% cytotoxic concentration (CC50) was 13.7 µM (active).

For `C=CCNC(=S)NNC(=O)C(CCC(C)C)CC(C)O` (stereo unspecified), the EC50 in assay [9] is 43.5 µM (active).

As to `CC(=O)Nc1ccc2c(c1)C1C=CCC1C(C(=O)O)N2` (stereo unspecified), the IC50 was > 100 µM (not active) in [10]; > 100 µM (not active) in assay [11]; 21 µM (active) in [12]; > 100 µM (inactive) in assay [13]; > 100 µM (inactive) in [14]; 35.2 µM (active) in [15]. The half-maximal effective concentration (EC50) in [16] was 4.44 µM (active).

By EC50 is commonly meant the concentration that produces a half-maximal response. A word on the CC50: it is the concentration that lowers cell viability or growth by half. One may read the IC50 as the midpoint of a concentration-inhibition curve.
